Our source for the IC50 values is ChEMBL document CHEMBL1201862, “PubChem BioAssay data set” (2004).

Molecules are shown by their SMILES. The source made the active and inactive calls. Cut-off read from the data, not from the text of the source: actives have a measured IC50 and inactives only a lower limit.

For the assay, the target named is Envelope glycoprotein gp160 (Human immunodeficiency virus 1, UniProt Q6QLK5). The experiment in a line: inhibitors of HIV fusion peptide binding, primary screen, biochemical, uHTS, fluorescence dequenching (AID 1986).
Envelope glycoprotein gp160, sequence (Q6QLK5 whole entry, the tested form may be a part): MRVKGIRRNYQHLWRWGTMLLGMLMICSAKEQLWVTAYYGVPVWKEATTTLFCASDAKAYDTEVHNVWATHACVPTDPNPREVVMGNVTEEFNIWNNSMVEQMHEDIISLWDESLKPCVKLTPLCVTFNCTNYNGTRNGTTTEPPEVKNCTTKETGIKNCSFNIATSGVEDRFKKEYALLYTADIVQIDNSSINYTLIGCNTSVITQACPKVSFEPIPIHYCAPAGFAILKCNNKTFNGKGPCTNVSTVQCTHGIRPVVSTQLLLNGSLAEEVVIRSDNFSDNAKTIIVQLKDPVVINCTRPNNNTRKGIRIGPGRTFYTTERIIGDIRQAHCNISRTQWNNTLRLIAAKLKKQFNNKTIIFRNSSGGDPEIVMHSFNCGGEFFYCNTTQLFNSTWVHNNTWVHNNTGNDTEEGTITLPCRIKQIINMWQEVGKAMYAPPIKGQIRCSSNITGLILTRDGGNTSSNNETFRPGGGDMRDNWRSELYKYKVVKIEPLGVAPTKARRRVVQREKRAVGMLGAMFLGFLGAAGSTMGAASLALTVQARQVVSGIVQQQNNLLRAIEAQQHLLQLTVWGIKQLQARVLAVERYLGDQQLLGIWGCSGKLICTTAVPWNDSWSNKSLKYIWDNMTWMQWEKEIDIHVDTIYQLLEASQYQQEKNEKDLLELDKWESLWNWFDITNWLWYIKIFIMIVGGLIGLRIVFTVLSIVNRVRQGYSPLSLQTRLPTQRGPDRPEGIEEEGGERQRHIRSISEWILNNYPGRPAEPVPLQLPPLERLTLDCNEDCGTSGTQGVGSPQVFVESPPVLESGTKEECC
Regarding `COc1cccc(OCCOc2ccc(/C=C3\C(=N)N4N=C(S(C)(=O)=O)SC4=NC3=O)cc2OC)c1`, the 50% inhibitory concentration (IC50) (in general, the point on the concentration scale where inhibition reaches its midpoint) is 43.8 µM (active). The result for `O=C(O)c1cc(-c2ccc(/C=N/Nc3ccc(Cl)cc3)o2)ccc1Cl` reads 24.1 µM (active). The result for `Cc1oc2c(cc(NS(=O)(=O)c3ccc(C(C)C)cc3)c3ccccc32)c1C(=O)O` reads 14.8 µM (active); that for `O=C(CCN1C(=O)/C(=C/c2cccs2)SC1=S)Nc1ccc(C(=O)O)c(O)c1`, 11.6 µM (active).

For `N#Cc1c(SCC(=O)Nc2nc3ccc(Br)cc3s2)sc2c(O)cc(=O)[nH]c12`, the IC50 was 11 µM (active).
